What was measured:
[1] = target: T1, CCL28 (Homo sapiens, UniProt Q9NRJ3); assay: Chemokine glycan microarray binding assay; conditions: maximum RFU set as 100% binding, average across 2 glycan concentrations and 3 chemokine dilutions (n=6)
T1 sequence (Q9NRJ3 20-127): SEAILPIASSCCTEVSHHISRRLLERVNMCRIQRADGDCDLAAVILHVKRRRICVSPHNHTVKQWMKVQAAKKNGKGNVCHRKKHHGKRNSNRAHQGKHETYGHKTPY
How it was run: (§1)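 Epoxy-slide glycan array; block: PBS pH 7.3 + 1% ovalbumin, 1 h RT. Chemokine, 3 serial dilutions, 2 h RT; biotin-secondary Ab 1 μg/mL → Cy3-SA; fluorescence scan. Max RFU per block = 100%, others ranked; mean rank ± SEM over dilutions.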

[2] = target: CXCL12 (Homo sapiens, UniProt P48061); assay: Chemokine glycan microarray binding assay; conditions: maximum RFU set as 100% binding, average across 2 glycan concentrations and 3 chemokine dilutions (n=6)
How it was run: as §1

[3] = target: T2, CCL7 (Homo sapiens, UniProt P80098); assay: Chemokine glycan microarray binding assay; conditions: maximum RFU set as 100% binding, average across 2 glycan concentrations and 3 chemokine dilutions (n=6)
How it was run: as §1

[4] = target: T3, CXCL10 (Homo sapiens, UniProt P02778); assay: Chemokine glycan microarray binding assay; conditions: maximum RFU set as 100% binding, average across 2 glycan concentrations and 3 chemokine dilutions (n=6)
T3 sequence (P02778 22-98): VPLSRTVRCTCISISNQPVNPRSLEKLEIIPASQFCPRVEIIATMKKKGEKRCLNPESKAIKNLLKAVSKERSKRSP
How it was run: as §1

[5] = target: T4, CCL21 (Homo sapiens, UniProt O00585); assay: Chemokine glycan microarray binding assay; conditions: maximum RFU set as 100% binding, average across 2 glycan concentrations and 3 chemokine dilutions (n=6)
T4 sequence (O00585 24-134): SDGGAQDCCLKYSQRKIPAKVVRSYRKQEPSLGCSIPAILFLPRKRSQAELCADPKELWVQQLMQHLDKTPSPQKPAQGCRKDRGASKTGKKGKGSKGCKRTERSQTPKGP
How it was run: as §1

[6] = target: T5, CCL5 (Homo sapiens, UniProt P13501); assay: Chemokine glycan microarray binding assay; conditions: maximum RFU set as 100% binding, average across 2 glycan concentrations and 3 chemokine dilutions (n=6)
T5 sequence (P13501 24-91): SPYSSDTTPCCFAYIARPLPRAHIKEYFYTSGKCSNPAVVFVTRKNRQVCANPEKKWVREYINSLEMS
How it was run: as §1

[7] = target: T6, CXCL8 (Homo sapiens, UniProt P10145); assay: Chemokine glycan microarray binding assay; conditions: maximum RFU set as 100% binding, average across 2 glycan concentrations and 3 chemokine dilutions (n=6)
T6 sequence (P10145 21-99): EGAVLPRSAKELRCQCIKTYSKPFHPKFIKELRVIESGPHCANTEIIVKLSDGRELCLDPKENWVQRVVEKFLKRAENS
How it was run: as §1

[8] = target: T7, CCL2 (Homo sapiens, UniProt P13500); assay: Chemokine glycan microarray binding assay; conditions: maximum RFU set as 100% binding, average across 2 glycan concentrations and 3 chemokine dilutions (n=6)
How it was run: as §1

[9] = target: CCL13 (Homo sapiens, UniProt Q99616); assay: Chemokine glycan microarray binding assay; conditions: maximum RFU set as 100% binding, average across 2 glycan concentrations and 3 chemokine dilutions (n=6)
How it was run: as §1

[10] = target: T2, CCL7; assay: Surface Plasmon Resonance (SPR) binding kinetics; conditions: compound immobilized on CM5 chip, 25° C., 1:1 model
Protocol: (§2) FIG. 1: SPR analysis of chemokines binding profile for the compounds of present invention: SPR binding analysis of the interaction between the examples 12, 17, and 19, chemokines were reported, Concentrations of chemokines were 0.05-2 μM. A global fit according to a 1:1 binding model was applied (black curves).
(§3) Surface Plasmon Resonance (SPR) binding kinetics The compound of present invention (test compound, Example 12) was covalently immobilized on sensor chip via coupling reaction. At first, the dextran matrix on CM5 chip was activated with NHS (0.02 M) and EDC coupling reagent (0.2 M) at a flow rate of 5 μL min^−1 for 15 min before activating with 50 μL of test compound (0.5 mM) in HBS-EP buffer. In the negative control cell after EDC and NHS activation, 0.5 mM of ethanol amine solution was flowed. The positive RU response on test compound confirmed immobilization of the HS ligand on CM5 chips. Then, different chemokines at a flow rate of 50 μL/min and 25° C. in HBS-EP buffer without growth factor was then flowed over the sensor surface for 3 min to enable association/dissociation. Kinetic analysis was performed using the BIA evaluation software for T100. Association and dissociation phase data were globally fitted to a simple 1:1 interaction model.
(§4) Table 2: SPR analysis of kinetic rate constants and equilibrium affinities of compounds of present invention binding to chemokines
as §3, with “The” for “Surface Plasmon Resonance (SPR) binding kinetics The”, “12, 17 & 18)” for “12)”

[11] = target: T3, CXCL10; assay: Surface Plasmon Resonance (SPR) binding kinetics; conditions: compound immobilized on CM5 chip, 25° C., 1:1 model
Protocol: as §2, §3, §4
as §3, with “The” for “Surface Plasmon Resonance (SPR) binding kinetics The”, “12, 17 & 18)” for “12)”

[12] = target: T5, CCL5; assay: Surface Plasmon Resonance (SPR) binding kinetics; conditions: compound immobilized on CM5 chip, 25° C., 1:1 model
Protocol: as §2, §3, §4
as §3, with “The” for “Surface Plasmon Resonance (SPR) binding kinetics The”, “12, 17 & 18)” for “12)”

[13] = target: T6, CXCL8; assay: Surface Plasmon Resonance (SPR) binding kinetics; conditions: compound immobilized on CM5 chip, 25° C., 1:1 model
Protocol: as §2, §3, §4
as §3, with “The” for “Surface Plasmon Resonance (SPR) binding kinetics The”, “12, 17 & 18)” for “12)”

[14] = target: T7, CCL2; assay: Surface Plasmon Resonance (SPR) binding kinetics; conditions: compound immobilized on CM5 chip, 25° C., 1:1 model
Protocol: as §2, §3, §4
as §3, with “The” for “Surface Plasmon Resonance (SPR) binding kinetics The”, “12, 17 & 18)” for “12)”

T7 sequence (P13500 24-99, species assumed): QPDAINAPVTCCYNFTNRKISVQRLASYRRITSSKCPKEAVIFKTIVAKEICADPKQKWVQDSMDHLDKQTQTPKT
T2 sequence (P80098 24-99, species assumed): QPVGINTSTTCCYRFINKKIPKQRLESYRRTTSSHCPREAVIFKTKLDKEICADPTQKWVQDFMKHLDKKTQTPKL
CXCL12, sequence (P48061 22-93, species assumed): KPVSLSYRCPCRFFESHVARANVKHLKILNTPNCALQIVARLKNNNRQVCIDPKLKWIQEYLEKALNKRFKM
CCL13, sequence (Q99616 17-98, species assumed): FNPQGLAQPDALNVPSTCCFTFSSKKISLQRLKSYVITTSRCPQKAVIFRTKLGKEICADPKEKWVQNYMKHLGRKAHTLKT

Structure (SMILES)	mean rank binding to CCL28 [1]	mean rank binding to CXCL12 [2]	mean rank binding to CCL7 [3]	mean rank binding to CXCL10 [4]	mean rank binding to CCL21 [5]	mean rank binding to CCL5 [6]	mean rank binding to CXCL8 [7]	mean rank binding to CCL2 [8]	mean rank binding to CCL13 [9]	further results
NCCCO[C@@H]1OC(C(=O)O)[C@@H](O[C@H]2OC(COS(=O)(=O)O)[C@@H](O[C@@H]3OC(C(=O)O)[C@@H](O[C@H]4OC(COS(=O)(=O)O)[C@@H](O)C(O)C4N)C(O)C3OS(=O)(=O)O)C(O)C2N)C(O)C1OS(=O)(=O)O (stereo partly drawn) [Example 19, 3-Aminopropyl-O-[(2-amino-6-O-sulfonato-2-deoxy-α-D-glucopyranosyl)-(1→4)-O-(2-O-sulfonato-α-L-idopyranosyluronate)-(1→4)-O-(2-amino-6-O-sulfonato-2-deoxy-α-D-glucopyranosyl)]-(1→4)-O-2-O-sulfonato-α-L-idopyranosiduronate]	79%	79%	91%	89%	66%	95%	79%	80%	74%	Kd [10]: 11.5 ± 0.17 µM; Koff [10]: 2.25 ± 0.29 × 10^−1 S^−1; Kon [10]: 1.96 ± 0.22 × 10^4 M^−1S^−1; Kd [11]: 10.7 ± 0.37 µM; Koff [11]: 2.24 ± 0.35 × 10^−1 S^−1; Kon [11]: 2.07 ± 0.26 × 10^4 M^−1S^−1; Koff [12]: 2.14 ± 0.48 × 10^−1 S^−1; Kon [12]: 9.15 ± 0.34 × 10^4 M^−1S^−1; Kd [13]: 15.9 ± 0.23 µM; Koff [13]: 1.96 ± 0.29 × 10^−1 S^−1; Kon [13]: 1.23 ± 0.17 × 10^4 M^−1S^−1; Kd [14]: 9.82 ± 0.18 µM; Koff [14]: 2.03 ± 0.17 × 10^−1 S^−1; Kon [14]: 2.07 ± 0.13 × 10^4 M^−1S^−1
CC(=O)N[C@H]1[C@@H](O[C@H]2[C@H](O)[C@@H](O)[C@H](OCCCN)O[C@H]2C(=O)O)O[C@H](COP(=O)(O)O)[C@@H](O[C@@H]2O[C@@H](C(=O)O)[C@@H](O[C@H]3O[C@H](COP(=O)(O)O)[C@@H](O)[C@H](O)[C@H]3NC(C)=O)[C@H](O)[C@H]2O)[C@@H]1O [Example 26]	39%	75%	40%	48%	81%	5%	10%	1%	70%	–

Source: patent publication US20260207654A1, “HEPARAN SULFATE AND ITS MIMETICS AS CHEMOKINE INHIBITORS” (INDIAN INSTITUTE OF SCIENCE EDUCATION AND RESEARCH, priority 2021, published 2026)
